Data on 1 compound can be found in patent US7101915B1, “P-terphenyl compounds” (Shionogi & Co., Ltd., priority 1996, dated 2006).

For data set [1], the system named is IgG1 production of mouse spleen lymphocytes. The experiment in a line: Suppressive effect on antibody production of mouse spleen lymphocytes: IgG1. Conditions: Lymphocyte, 240 h, LPS + IL-4, 10 days. The class given is cell-based, BALB/c (nu/nu) mice. Here is the method:
(§1) Experiment 6 Suppressive Effect on Antibody Production of Mouse Spleen Lymphocytes 1. Experimental Method 1) Animals
(§2) BALB/c (nu/nu) mice were bought from Japan SLC, Inc. (Shizuoka) and 7 weeks old-male mice were used.
(§3) RPMI medium (Nissui Pharmaceutical Co., Ltd.) containing 10% fetal bovine serum (HyClone Lab.) inactivated at 56° C. for 30 minutes, penicillin (100 units/ml) and streptomycin (100 μg/ml) (GIBCO) was used for experiments.
(§4) Each of the compounds was dissolved in dimethylsulfoxide (Nakaraitesk) at […] and diluted with the medium to adjust a final concentration to 0.1 μg/ml −10 μg/ml.
(§5) 4) Mouse Spleen Lymphocytes […]
(§6) In 96-well cultivating plate (Sumitomo Bakelite Company Limited) mouse spleen lymphocytes were inoculated 2×10^5 cells per well. […] After the cultivation for 10 days, the amount of the antibody in a supernatant was quantified by ELISA method.
(§7) 7) Quantification of the IgG1, IgG2a and IgM Antibodies
(§8) In 96-well plate 50 μl of 10 μg/ml Goat Anti-Mouse Ig (IgM+G+A, H+ L) (Southern Biotechnology, Birmingham) was added and the plate was coated at 4° C. overnight. […] After washing three times with PBST, 100 μl of culture supernatant which was diluted with PBS or 100 μl of an antibody standard solution (Mouse IgG1 standard, Mouse IgG2a standard, Mouse IgM standard, BETHYL Laboratories) of a pre-determined concentration was added and incubated for 1 hour. […]

Data set [2] relates to anti-OVA IgE antibody titer (PCA titer). The experiment in a line: Suppressive effect on the IgE production against ovalbumin (OVA), PCA titer. The class given is in vivo, BALB/c mice. Conditions: 40 mg/kg orally for 10 days; untreated group 9-12. The protocol: Experiment 4 Suppressive Effect on the IgE Production Against Ovalbumin (OVA)
BALB/c mice (female, 8-10 weeks old) and Wistar rats (female, 8-10 weeks old) which were bought from Japan SLC, Inc. (Shizuoka) were used.
BALB/c mice were immunized by an intraperitoneal administration of 0.2 ml suspension of 2 μg of ovalbumin (OVA) and 2 mg of aluminium hydroxide gel in physiological saline. After 10 days, blood was drawn from hearts, sera were separated and stocked at −40° C. till the measurement of an IgE antibody titer.
After the compound of the present invention was dissolved or suspended in N, N-dimethylacetoamide, the mixture was diluted 20 times with miglyol 812 neutral oil. The obtained solution was orally administered to mice at 0.1 ml per mouse. The administration was continued for 10 days from the immunizing day to the day before drawing blood. IPD-1151-T (a compound described in Jpn. Pharmacol. (1993) 61, 31–39) and a compound No. 36 (a compound 36 described in J. Med. Chem. (1997) 40: 395–407) were examined as controls by the same method.
4) Measurement of Anti-OVA IgE Antibody Titer (PCA Titer)
The samples 2-fold diluted with physiological saline were prepared from the obtained mouse serum and each 50 μl of the solution was intradermally injected to backs of Wistar rats which previously hair cut. After 24 hours, a passive cutaneous anaphylaxis reaction (PCA) was induced by an intravenous injection of 0.5 ml of physiological saline containing 1 mg of OVA and 5 mg of Evans' blue dye. After 30 minutes, the rats were sacrified and the highest dilution rate of the serum giving bluing with a diameter of more than 5 mm was recorded as the PCA titer. For example, when a serum is positive for the PCA reaction till […], the anti-OVA IgE antibody titer of the mouse is defined as 7.

In data set [3] the test system is IgM production of mouse spleen lymphocytes. The experiment in a line: Suppressive effect on antibody production of mouse spleen lymphocytes: IgM. To be noted: Lymphocyte, 240 h, LPS + IL-4, 10 days. It counts as cell-based, BALB/c (nu/nu) mice. The protocol:
as §1, §2, §3, §4, §5, §6, §7, §8

Data set [4] deals with BGG-specific IgE in a serum. The experiment in a line: Suppressive effect on the antibody production against bovine γ globulin (BGG), sandwich ELISA. It counts as in vivo, BALB/c mice. Conditions: 50 mg/kg p.o. every day, serum after 21 days. Here is the method:
Experiment 3 Suppressive Effect on the Antibody Production Against Bovine γ Globulin (BGG)
On an immunizing day and 7 days after, 50 μg of BGG was subcutaneously inoculated to backs of BALB/c mice (male, 6-8 weeks old) for inducing an immune reaction. After the compound of the present invention was dissolved or suspended in N, N-dimethylacetoamide, the mixture was diluted with miglyol 812 neutral oil. A proper volume of the compound was orally administered (p.o.) to mice every day from the next day of the immunizing. A two hundredth weight to body weight of miglyol was administered to mice in a control group. After 21 days, blood was drawn from each mouse and a serum was separated. BGG-specific IgE in a serum was measured by the sandwich ELISA method using a BGG-coating plate. The suppressive rate of IgE production was calculated from the dilution rate of the serum which has the same absorption intensity as that of the control group for judging the effect of the compound of the present invention.

Broadly, the IC50 is the concentration needed to halve the response being measured. Broadly, the melting point is the temperature of the solid-liquid transition.

Marks after values point to notes of the source that are not given here.

The compound `Cc1cc(-c2ccc(OCC=C(Cl)Cl)c(F)c2)c(C)cc1-c1ccc(O)cc1` [Compound I-963] returned a melting point of 93 to 94 °C. Besides, the IC50 in data set [1] was 0.51 µg/mL. Moreover, the “PCA Titer” value in data set [2] is reported as 3.6**. Also, in data set [3], the half-maximal inhibitory concentration (IC50) turned out to be 3.5 µg/mL. In data set [4], the “Suppressive rate of antigen-specific IgE” value was more than 99%.
